Reference: patent US6632797B2, “Method of treating angiogenesis” (priority 1996, dated 2003)

Columns and labels:
[1] = Binding constants to the polyamine spermine; type: physicochemical; details: 1:1:5 complex; 0.1 M N-tetramethylbromide at 25° C.
Description: The interaction between a polyamine, spermine and different triphosphorylated compounds were investigated in order to determin the binding constants. Spermine is a basic polyamine comprising domains of similar basicity to basic domains in growth factors. Spermine and the different phosphorylated compounds forms different complexes and the 1:1:5 complex was used as the complex for determination of binding constants.
The following binding constants, log Ks was determined in 0.1 M N-tetramethylbromide at 25° C.: […]

[2] = test system: carrageenan-induced inflammation; test: Carrageenan-induced paw inflammation in mice (plethysmometer); type: in vivo; details: intravenous injection before carrageenan (64 mg/kg stated for PP35-405); after 3.5 hrs
Description: Growth factors are implicated to participate in inflammatory conditions. Carrageenan (0.1 ml, 1%) was injected intraplantarly in one hind paw of two groups of mice, five animals in each group.
An intravenous injection of 64 mg/kg of 1,2-O-ethylene-β-D-fructopyranoside-2,3,4-trisphosphate (PP35-405) was administered immediately before the injection of carrageenan.
Injection of carrageenan induces inflammation which is measured by comparing the increase in paw volume using a plethysmometer.
In a procedure similar to the one described in Example 8, an intravenous injection of 1,5-dideoxy-1,5-imino-N-(2-phenylethyl)arabinitol-2,3,4-trisphosphate (PP35-508) was administered.
In a procedure similar to the one described in Example 8, an intravenous injection of myo-inositol-1,2,6-tris(carboxymethyl phosphonate) (PP40-402) was administered. 3.5 hrs after the injection of carrageenan the inflammation was retarded with 32% in the group recieving PP40-402. Thus the administration of PP40-402 markedly reduces the inflammatory condition.

[3] = test system: HIV (viral isolates from HIV-infected patients) in peripheral blood mononuclear cells (PBMC); test: HIV infection of PBMC, HIV-antigen production by ELISA; type: cell-based; details: normalized HIV-antigen production at day 7, control 100
Description: Growth factor activity is considered to be involved in the process of viral infections. Viral isolates from HIV-infected patients were used in order to induce an infection by adding peripheral blood mononuclear cells (PBMC) to a medium containing different concentrations of the sodium salt of D-3,4,5-tri-O-hexanoyl-myo-inositol-1,2,6-trisphosphate (PP10-202). 25 CCID50 (50% cell culture infections dose) of PBMC from HIV-infected patients were incubated with four different concentrations of PP10-202; 0.0625 mg/ml, 0.125 mg/ml, 0.250 mg/ml and 0.500 mg/ml. Another preparation, without any PP10-202 served as a control. The growth medium consisted of 10% fetal calf serum, […] glutamine, 100 IU/ml penicillin, 100 IU/ml streptomycin and 20 μg/ml gentamicin. The concentration of cells were 2×10^5 per ml. All preparations were incubated for 1 hour at 37° C.
PBMCs from healthy donors were then added to the preparation. Before addition, these cells were stimulated for three days with phytohemagglutinin (PHA). 0.5×10^6 PHA-stimulated PBMCs were added to each preparation, followed by incubation for 3 hours at 37° C. After extensive washing the cells were resuspended in growth medium supplemented with 10 IU/ml of interleukin-2 and seeded in quadruplicates of 100.000 cells in a 96-well microtite plate before further cultivation for 7 days. The HIV-antigen production was assayed at the seventh day using an ELISA-technique.

[4] = test system: acetic acid-induced writhes; test: Acetic acid writhing test (analgetic effect); type: in vivo, mice; details: 64 mg/kg intravenous, sodium salt; 10-minute observation
Description: Two groups of mice, 10 animals per group, were used in order to investigate the analgetic effect of methyl α-D-rhamnopyranoside-2,3,4-trisphosphate (PP 35-406). The control group was given an intravenous dose of saline while the other group was given a dose of 64 mg/kg of the sodium salt of PP 35-406. Three minutes after intravenous dosing, each […] received an intraperitoneal injection of 1 ml of a 1% (w/w) solution of acetic acid. Directly after that procedure each animal was placed into individual observation chambers and the numbers of writhes elicited during the subsequent 10-minute period were recorded. After the observation period the animals were killed by cervical dislocation. The number of writhes during the observation period is an expression of the pain experienced by the animal. Percent protection was calculated as follows: […]((number of writhes in control group—number of writhes in treated animals)/(number of writhes in control group).

[5] = test system: phosphatidyl inositol 3′ kinase (PI 3′-kinase); test: Interstitial fluid pressure (PIF) in rat hind paw, wortmannin-induced decrease; type: in vivo, Wistar Möller rats; design: PIF (interstitial fluid pressure): dose or concentration left out as unconfirmed; details: wortmannin in DMSO/saline, 5 μl subdermally; after 30 minutes; vehicle ca −0.7 mm Hg
Text: The enzyme phosphatidyl inositol 3′ kinase (PI 3′-kinase) is implicated in a number of growth factor induced responses such as mitogenesis, chemotaxis, membrane ruffling and the balance between osteoclasts and osteoblasts. Furthermore it is known that inactivation of PI 3′ kinase leads to increased oedema formation expressed as a decrease of interstitial fluid pressure (PIF) in animal models.
An inhibitor of PI 3′ kinase such as wortmannin renders a decrease of PIF as a consequence of inactivation of PI 3′ kinase.
The measurements were performed on female Wistar Möller rats (200-250 g), anesthetized with pentobarbital (50 mg/kg i.p.).
PIF was measured on the dorsal side of the hind paw with sharpened glass capillarier (tip diameter 2-7 μm) filled with 0.5 M NaCl coloured with Evans Blue and connected to a serve-controlled counter pressure system. The punctures were performed through intact skin using a stereomicroscope. The pipette-tip was located 0.3-0.5 mm below the skin. Pressure measurements were made 2.5-3.0 mm from the center of injection. The normal transcapillary pressure gradient is about 0.5 mm Hg.
Three sets of experiments were performed with six animals in each set.
In the first set of experiment the vehicle for wortmannin, DMSO diluted in saline, 5 μl, was injected subdermally using a chromatography syringe. […]

| Molecule | log Ks [1] | inflammation retarded (increase in paw volume) [2] | other results |
| --- | --- | --- | --- |
| Methyl-6-O-butyl-α-D-mannopyranoside 2,3,4-trisphosphate [PP35-402] | 5.36 | – | – |
| O=C(O)CP(=O)(O)OC1C(O)C(O)C(O)C(OP(=O)(O)CC(=O)O)C1OP(=O)(O)CC(=O)O (stereo not drawn) [PP40-402, myo-inositol-1,2,6-tris(carboxymethyl phosphonate)] | – | 32% | – |
| 1,2-O-ethylene-β-D-fructopyranoside-2,3,4-trisphosphate [PP35-405] | – | 51% | – |
| O=P(O)(O)OC1CN(CCc2ccccc2)CC(OP(=O)(O)O)C1OP(=O)(O)O (stereo not drawn) [PP35-508, 1,5-dideoxy-1,5-imino-N-(2-phenylethyl)arabinitol-2,3,4-trisphosphate] | – | 27% | – |
| CCCCCC(=O)O[C@@H]1[C@@H](OC(=O)CCCCC)[C@@H](OP(=O)(O)O)[C@@H](OP(=O)(O)O)[C@H](OP(=O)(O)O)[C@H]1OC(=O)CCCCC [PP10-202, D-3,4,5-tri-O-hexanoyl-myo-inositol-1,2,6-trisphosphate] | 4.20 | – | HIV-infection ([3]; 0.0625 mg/ml): 75%; HIV-infection ([3]; 0.125 mg/ml): 41%; HIV-infection ([3]; 0.250 mg/ml): 33%; HIV-infection ([3]; 0.500 mg/ml): 20% |
| CO[C@H]1O[C@H](C)[C@@H](OP(=O)(O)O)[C@H](OP(=O)(O)O)[C@@H]1OP(=O)(O)O [PP 35-406, methyl α-D-rhamnopyranoside-2,3,4-trisphosphate] | – | – | Percent protection (number of writhes) [4]: 19% |
| COC[C@H]1OC(=O)c2coc3c2[C@@]1(C)C1=C(C3=O)[C@@H]2CCC(=O)[C@@]2(C)C[C@H]1OC(C)=O [wortmannin, reference compound] | – | – | PIF (interstitial fluid pressure) [5]: −2.5 mm Hg |
| O=C(Nc1ccccc1)O[C@@H]1[C@@H](OC(=O)Nc2ccccc2)[C@@H](OP(=O)(O)O)[C@@H](OP(=O)(O)O)[C@H](OP(=O)(O)O)[C@H]1OC(=O)Nc1ccccc1 [PP11-201, D-3,4,5-tri-O-phenylcarbamoyl-myo-inositol-1,2,6-trisphosphate] | 4.71 | – | – |
